Reference: ChEMBL document CHEMBL6103588, “Promising thiazolidinedione-thiazole based multi-target and neuroprotective hybrids for Alzheimer's disease: Design, synthesis, in-vitro, in-vivo and in-silico studies” (Eur J Med Chem, 2025)

Key:
in vitro = conditions: PAMPA, pH 7.4
Description: Permeability of compound in PBS at pH 7.4 incubated for 20 hrs by PAMPA-BBB assay

Acetylcholinesterase [1] = molecular target: Acetylcholinesterase (Electrophorus electricus, UniProt O42275); test: Inhibition of Electric eel AChE using acetylthiocholine iodide as substrate pre-incubated for 10 mins followed by substrate addition and measured after 15 mins by DTNB reagent based Ellman's method
Beta-secretase 1 = Beta-secretase 1 (Homo sapiens, UniProt P56817); test: Inhibition of BACE-1 (unknown origin) 667-676- (2, 4-dinitrophenyl) Lys-Arg-Arg amide trifluoroacetate as substrate preincubated for 15 mins followed by substrate addition and measured after 2 hrs by fluorescence spectrometric analysis
[2] = Neurotoxicity against human SH-SY5Y cells assessed as reduction in cell viability upto 50 uM incubated for 24 hrs by MTT assay; assay type: toxicity, cell-based
[3] = Lipophilicity, logP of compound; assay type: physicochemical; conditions: octanol/water
Acetylcholinesterase [4] = molecular target: Acetylcholinesterase (Homo sapiens, UniProt P22303); test: Inhibition of AChE (unknown origin) using acetylthiocholine iodide as substrate pre-incubated for 30 mins followed by substrate addition and measured after 30 mins by DTNB reagent based Ellman's method
[5] = molecular target: T1, Amine oxidase [flavin-containing] B (Homo sapiens, UniProt P27338); test: Inhibition of MAO-B (unknown origin)
T1 sequence (P27338 whole entry): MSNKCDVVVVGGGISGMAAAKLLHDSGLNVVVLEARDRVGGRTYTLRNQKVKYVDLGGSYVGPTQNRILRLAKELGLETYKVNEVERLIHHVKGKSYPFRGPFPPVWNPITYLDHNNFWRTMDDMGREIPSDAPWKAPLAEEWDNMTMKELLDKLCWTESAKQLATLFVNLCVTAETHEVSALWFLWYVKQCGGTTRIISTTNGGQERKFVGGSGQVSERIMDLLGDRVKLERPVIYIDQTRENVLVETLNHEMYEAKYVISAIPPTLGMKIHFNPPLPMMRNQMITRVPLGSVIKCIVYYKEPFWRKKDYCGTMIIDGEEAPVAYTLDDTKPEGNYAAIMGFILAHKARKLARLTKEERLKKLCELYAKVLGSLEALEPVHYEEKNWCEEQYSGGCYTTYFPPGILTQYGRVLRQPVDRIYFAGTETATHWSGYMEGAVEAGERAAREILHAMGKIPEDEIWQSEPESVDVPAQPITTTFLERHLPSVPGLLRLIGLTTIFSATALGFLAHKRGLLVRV

[6] = molecular target: T2, Amine oxidase [flavin-containing] A (Homo sapiens, UniProt P21397); test: Inhibition of human MAO-A using tyramine/benzylamine as substrate measured after 30 mins by fluorometric assay
T2 sequence (P21397 whole entry): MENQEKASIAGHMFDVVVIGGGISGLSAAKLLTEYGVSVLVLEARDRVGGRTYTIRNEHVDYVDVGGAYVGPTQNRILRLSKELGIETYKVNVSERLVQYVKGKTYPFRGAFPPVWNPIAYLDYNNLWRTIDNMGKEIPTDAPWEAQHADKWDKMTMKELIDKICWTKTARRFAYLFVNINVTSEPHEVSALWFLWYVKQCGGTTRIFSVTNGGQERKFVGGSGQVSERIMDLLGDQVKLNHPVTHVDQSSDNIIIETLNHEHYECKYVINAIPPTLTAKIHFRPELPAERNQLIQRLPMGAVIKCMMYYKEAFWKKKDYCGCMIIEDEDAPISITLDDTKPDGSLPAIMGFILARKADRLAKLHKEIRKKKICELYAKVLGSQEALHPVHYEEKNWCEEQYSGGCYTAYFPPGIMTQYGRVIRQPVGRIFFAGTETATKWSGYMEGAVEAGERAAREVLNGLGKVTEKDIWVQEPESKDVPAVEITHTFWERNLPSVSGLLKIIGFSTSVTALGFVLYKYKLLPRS

[7] = molecular target: Prostaglandin G/H synthase 1 (Homo sapiens, UniProt P23219)
Cholinesterase [8] = molecular target: Cholinesterase (Homo sapiens, UniProt P06276); test: Inhibition of BChE (unknown origin)
[9] = molecular target: T1, Amine oxidase [flavin-containing] B; conditions: read-out: INH
Description: Inhibition of MAO-B (unknown origin) at 100 uM relative to control

[10] = molecular target: T1, Amine oxidase [flavin-containing] B; test: Inhibition of human MAO-B using tyramine/benzylamine as substrate measured after 30 mins by fluorometric assay
[11] = molecular target: T3, Polyunsaturated fatty acid 5-lipoxygenase (Homo sapiens, UniProt P09917); test: Inhibition of 5-LOX (unknown origin) using linoleic acid as substrate incubated for 5 mins followed by substrate addition
T3 sequence (P09917 whole entry): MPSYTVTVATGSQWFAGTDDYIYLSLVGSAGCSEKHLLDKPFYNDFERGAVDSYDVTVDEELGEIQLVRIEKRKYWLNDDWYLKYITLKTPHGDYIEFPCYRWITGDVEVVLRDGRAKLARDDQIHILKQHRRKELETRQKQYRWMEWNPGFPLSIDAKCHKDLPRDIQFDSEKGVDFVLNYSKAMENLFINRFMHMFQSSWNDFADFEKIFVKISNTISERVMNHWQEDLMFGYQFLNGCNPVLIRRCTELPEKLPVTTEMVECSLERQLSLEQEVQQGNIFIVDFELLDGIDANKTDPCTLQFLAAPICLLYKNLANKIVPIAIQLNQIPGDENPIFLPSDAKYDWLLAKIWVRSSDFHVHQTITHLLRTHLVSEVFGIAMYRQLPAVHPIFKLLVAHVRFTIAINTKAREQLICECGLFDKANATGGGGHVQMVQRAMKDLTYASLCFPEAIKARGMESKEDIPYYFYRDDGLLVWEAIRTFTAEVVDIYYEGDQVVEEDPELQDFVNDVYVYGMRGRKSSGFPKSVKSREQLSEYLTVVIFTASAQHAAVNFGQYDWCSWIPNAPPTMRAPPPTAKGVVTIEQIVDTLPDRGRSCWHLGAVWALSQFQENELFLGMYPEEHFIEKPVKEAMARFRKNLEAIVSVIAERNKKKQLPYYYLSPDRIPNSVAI

[12] = molecular target: T4, Prostaglandin G/H synthase 2 (Homo sapiens, UniProt P35354)
T4 sequence (P35354 whole entry): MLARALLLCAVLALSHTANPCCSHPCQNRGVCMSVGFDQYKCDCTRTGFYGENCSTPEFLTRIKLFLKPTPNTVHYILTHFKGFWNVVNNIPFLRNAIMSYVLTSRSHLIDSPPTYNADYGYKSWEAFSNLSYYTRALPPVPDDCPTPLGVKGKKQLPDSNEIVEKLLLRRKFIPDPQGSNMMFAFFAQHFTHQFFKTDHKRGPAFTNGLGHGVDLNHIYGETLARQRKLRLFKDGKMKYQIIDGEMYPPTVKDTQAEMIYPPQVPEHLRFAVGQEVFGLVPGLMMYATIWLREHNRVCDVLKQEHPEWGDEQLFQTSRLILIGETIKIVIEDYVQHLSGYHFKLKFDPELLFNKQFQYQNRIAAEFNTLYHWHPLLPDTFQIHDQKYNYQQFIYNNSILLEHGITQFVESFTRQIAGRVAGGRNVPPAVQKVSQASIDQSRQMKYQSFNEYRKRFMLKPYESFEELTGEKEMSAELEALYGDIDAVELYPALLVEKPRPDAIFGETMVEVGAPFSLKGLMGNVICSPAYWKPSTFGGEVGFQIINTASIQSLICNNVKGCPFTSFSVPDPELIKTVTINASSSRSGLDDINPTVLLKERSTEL
Description: Inhibition of COX-2 (unknown origin) using arachidonic acid as substrate and in presence of TMPD preincubated for 5 mins followed by substrate addition and measured after 5 mins by UV visible spectrophotometric analysis

Cholinesterase [13] = molecular target: Cholinesterase (Equus caballus, UniProt P81908); test: Inhibition of equine serum BuChE using butyrylthiocholine iodide as substrate pre-incubated for 10 mins followed by substrate addition and measured after 15 mins by DTNB reagent based Ellman's method
[14] = molecular target: T4, Prostaglandin G/H synthase 2; test: Inhibition of human COX2 by EIA method

Cholinesterase (Equus caballus, UniProt P81908), sequence (P81908 whole entry): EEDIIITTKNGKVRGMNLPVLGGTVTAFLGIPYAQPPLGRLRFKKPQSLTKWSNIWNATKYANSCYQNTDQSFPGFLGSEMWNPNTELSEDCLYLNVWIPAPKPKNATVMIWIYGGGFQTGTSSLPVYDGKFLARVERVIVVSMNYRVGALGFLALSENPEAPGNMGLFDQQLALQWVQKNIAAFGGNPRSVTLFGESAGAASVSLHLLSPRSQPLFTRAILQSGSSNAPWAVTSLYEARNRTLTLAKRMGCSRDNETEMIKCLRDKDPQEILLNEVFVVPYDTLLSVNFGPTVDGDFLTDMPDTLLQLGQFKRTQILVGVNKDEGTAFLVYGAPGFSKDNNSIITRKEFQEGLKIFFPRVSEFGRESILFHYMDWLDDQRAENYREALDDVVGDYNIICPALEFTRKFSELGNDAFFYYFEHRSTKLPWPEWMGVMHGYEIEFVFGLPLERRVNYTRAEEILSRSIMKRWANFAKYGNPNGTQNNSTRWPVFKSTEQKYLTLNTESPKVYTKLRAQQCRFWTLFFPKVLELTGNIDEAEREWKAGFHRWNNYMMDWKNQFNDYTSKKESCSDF
Acetylcholinesterase (Electrophorus electricus, UniProt O42275), sequence (O42275 whole entry): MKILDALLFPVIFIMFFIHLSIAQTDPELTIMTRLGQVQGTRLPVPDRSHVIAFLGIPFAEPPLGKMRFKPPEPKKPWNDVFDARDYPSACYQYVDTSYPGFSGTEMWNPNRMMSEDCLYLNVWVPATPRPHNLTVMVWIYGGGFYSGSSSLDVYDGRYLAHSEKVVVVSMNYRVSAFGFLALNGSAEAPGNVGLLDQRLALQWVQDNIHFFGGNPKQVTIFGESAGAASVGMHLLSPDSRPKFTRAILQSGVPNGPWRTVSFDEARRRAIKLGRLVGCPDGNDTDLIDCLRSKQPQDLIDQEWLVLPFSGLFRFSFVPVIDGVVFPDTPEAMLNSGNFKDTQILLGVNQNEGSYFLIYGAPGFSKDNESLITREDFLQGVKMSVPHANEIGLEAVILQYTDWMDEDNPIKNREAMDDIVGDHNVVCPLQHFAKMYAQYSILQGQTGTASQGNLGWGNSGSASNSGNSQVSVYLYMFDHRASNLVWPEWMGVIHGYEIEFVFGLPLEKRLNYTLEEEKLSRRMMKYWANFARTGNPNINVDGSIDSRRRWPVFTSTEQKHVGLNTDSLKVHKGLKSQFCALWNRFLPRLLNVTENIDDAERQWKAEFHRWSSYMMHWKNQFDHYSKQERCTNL
Beta-secretase 1, sequence (P56817 whole entry): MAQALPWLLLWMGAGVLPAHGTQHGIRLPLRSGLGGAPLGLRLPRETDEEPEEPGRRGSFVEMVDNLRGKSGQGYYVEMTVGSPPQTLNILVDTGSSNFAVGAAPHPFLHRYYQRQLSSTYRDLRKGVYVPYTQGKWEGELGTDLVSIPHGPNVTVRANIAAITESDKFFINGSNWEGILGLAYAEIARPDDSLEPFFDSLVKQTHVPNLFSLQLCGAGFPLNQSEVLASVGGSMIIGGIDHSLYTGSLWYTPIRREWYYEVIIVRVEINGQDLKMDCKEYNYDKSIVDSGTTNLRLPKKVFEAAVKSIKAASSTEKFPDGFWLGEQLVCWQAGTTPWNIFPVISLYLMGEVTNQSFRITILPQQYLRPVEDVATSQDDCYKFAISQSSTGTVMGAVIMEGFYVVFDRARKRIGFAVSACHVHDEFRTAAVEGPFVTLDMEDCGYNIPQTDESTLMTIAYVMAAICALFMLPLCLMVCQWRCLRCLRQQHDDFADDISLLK
Prostaglandin G/H synthase 1, sequence (P23219 whole entry): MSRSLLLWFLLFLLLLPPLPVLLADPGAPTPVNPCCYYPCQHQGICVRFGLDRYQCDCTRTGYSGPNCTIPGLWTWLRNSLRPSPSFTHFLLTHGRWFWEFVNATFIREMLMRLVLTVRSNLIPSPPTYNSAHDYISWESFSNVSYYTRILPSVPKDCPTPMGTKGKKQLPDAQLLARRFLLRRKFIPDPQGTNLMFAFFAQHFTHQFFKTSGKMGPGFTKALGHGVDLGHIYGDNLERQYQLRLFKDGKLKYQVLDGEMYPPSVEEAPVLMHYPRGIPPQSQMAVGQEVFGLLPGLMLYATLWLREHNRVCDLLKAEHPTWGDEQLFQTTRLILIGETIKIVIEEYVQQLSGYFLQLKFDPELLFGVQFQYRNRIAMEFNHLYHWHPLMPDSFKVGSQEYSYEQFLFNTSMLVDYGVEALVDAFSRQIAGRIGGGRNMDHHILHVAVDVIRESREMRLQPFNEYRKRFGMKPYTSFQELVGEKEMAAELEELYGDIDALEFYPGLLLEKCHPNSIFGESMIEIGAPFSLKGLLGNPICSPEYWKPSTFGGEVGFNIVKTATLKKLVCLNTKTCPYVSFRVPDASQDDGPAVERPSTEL
Acetylcholinesterase (Homo sapiens, UniProt P22303), sequence (P22303 whole entry): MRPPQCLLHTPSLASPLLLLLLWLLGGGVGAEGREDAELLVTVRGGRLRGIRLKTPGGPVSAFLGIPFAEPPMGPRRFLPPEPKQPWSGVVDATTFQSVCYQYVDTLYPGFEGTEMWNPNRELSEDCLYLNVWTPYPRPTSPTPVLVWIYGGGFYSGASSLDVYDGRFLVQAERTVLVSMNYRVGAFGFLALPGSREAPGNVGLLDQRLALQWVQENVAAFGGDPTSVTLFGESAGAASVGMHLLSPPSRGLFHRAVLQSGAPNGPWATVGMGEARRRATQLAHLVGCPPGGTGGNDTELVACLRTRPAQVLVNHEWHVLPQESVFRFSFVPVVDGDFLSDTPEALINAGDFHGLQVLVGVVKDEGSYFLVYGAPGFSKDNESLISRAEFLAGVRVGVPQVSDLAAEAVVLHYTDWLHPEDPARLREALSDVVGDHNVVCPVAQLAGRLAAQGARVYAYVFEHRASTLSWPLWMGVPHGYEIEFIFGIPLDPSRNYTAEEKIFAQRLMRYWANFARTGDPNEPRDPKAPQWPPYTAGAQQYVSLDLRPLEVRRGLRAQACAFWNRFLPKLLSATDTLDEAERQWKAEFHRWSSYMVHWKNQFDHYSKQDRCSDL
Cholinesterase (Homo sapiens, UniProt P06276), sequence (P06276 whole entry): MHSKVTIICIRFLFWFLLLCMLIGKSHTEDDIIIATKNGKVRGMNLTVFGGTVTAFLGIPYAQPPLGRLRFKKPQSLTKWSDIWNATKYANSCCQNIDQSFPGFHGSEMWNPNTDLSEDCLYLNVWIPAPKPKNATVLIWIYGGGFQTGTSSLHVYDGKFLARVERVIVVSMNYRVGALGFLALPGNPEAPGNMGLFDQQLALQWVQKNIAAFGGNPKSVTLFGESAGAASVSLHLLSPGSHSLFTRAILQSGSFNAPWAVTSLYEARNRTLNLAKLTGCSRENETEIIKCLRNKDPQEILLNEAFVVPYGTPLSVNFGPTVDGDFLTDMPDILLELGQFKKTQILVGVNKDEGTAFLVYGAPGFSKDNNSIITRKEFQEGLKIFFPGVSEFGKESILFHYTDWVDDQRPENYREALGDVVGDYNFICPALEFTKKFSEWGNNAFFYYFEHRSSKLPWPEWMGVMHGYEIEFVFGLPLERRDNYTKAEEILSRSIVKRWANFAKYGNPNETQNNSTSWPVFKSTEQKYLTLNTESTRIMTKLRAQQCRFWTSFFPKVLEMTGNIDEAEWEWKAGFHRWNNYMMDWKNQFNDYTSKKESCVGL

O=C1S/C(=C\c2ccc(-c3ccccc3)cc2)C(=O)N1CNc1nc(-c2ccccc2)cs1
Papp at 20 h (in vitro): 14.2 ×10⁻⁶ cm/s
IC50 (Acetylcholinesterase [1]; read-out: IC50): 0.063 µM
IC50 (Beta-secretase 1): Not_active
Activity [2]: Non-toxic
logP [3]: 6.78

Cc1nnc2n1-c1ccc(Cl)cc1C(c1ccccc1)=NC2 [ALPRAZOLAM]
Papp at 20 h (in vitro): 5.59 ×10⁻⁶ cm/s

O=C(/C=C/c1ccc(-c2ccccc2)cc1)Nc1nc2ccc(O)cc2s1
IC50 (Acetylcholinesterase [4]): 0.071 µM
IC50 [5]: 0.037 µM

O=C(CN1C(=O)S/C(=C\c2ccc(O)cc2)C1=O)Nc1nc2ccccc2s1
IC50 (Acetylcholinesterase [1]; read-out: IC50): 2.76 µM
IC50 [6]: Not_active

O=C(CN1C(=O)S/C(=C\c2c[nH]c3ccccc23)C1=O)Nc1nc2ccccc2s1
IC50 (Acetylcholinesterase [1]; read-out: IC50): 0.45 µM
IC50 ([7]; read-out: IC50): 42.5 µM
IC50 (Beta-secretase 1; read-out: IC50): 0.91 µM

O=C(CCN1CCCC1)Nc1nc2ccc(Br)cc2s1
IC50 (Cholinesterase [8]): 12 µM
inhibition at 100 µM [9]: 66%

O=C(/C=C/c1ccccc1)Nc1ccc2sc(NCN3C(=O)CSC3=O)nc2c1
IC50 [10]: 14.7 µM
IC50 (Acetylcholinesterase [1]; read-out: IC50): 9.07 µM
IC50 [11]: 0.21 µM
IC50 ([6]; read-out: IC50): 65.4 µM
IC50 (Beta-secretase 1): Not_active
IC50 [12]: 0.107 µM

C/C=C1\SC(=O)N(CNc2nc(-c3cc(Cl)cs3)c(Nc3ccc(S(N)(=O)=O)cc3)s2)C1=O
Papp at 20 h (in vitro): 9.1 ×10⁻⁶ cm/s
IC50 (Acetylcholinesterase [1]): Not_active
IC50 (Cholinesterase [13]): 0.11 µM
IC50 [7]: Not_active
IC50 (Beta-secretase 1; read-out: IC50): 0.51 µM
Activity [2]: Non-toxic
logP [3]: 4.86

O=C1S/C(=C\c2ccccc2)C(=O)N1CNc1nc(-c2cc(Cl)cs2)c(Nc2ccccc2)s1
IC50 (Acetylcholinesterase [1]): Not_active
IC50 (Cholinesterase [13]): 0.23 µM
IC50 [7]: Not_active
IC50 (Beta-secretase 1; read-out: IC50): 0.49 µM

O=C1S/C(=C\c2c[nH]c3ccccc23)C(=O)N1c1csc(Nc2ccccc2)n1
IC50 (Acetylcholinesterase [1]; read-out: IC50): 0.69 µM
IC50 (Cholinesterase [13]): 17.4 µM
IC50 ([7]; read-out: IC50): 33.4 µM
IC50 (Beta-secretase 1; read-out: IC50): 19.2 µM

CCn1cc(C(=O)O)c(=O)c2cc(F)c(N3CCNC(C)C3)c(F)c21 (stereo not given) [LOMEFLOXACIN]
Papp at 20 h (in vitro): 1.13 ×10⁻⁶ cm/s

O=C(CN1C(=O)S/C(=C\c2c[nH]c3ccccc23)C1=O)Nc1nccs1
IC50 (Acetylcholinesterase [1]; read-out: IC50): 0.16 µM
IC50 (Beta-secretase 1; read-out: IC50): 1.18 µM

O=C(CN1C(=O)S/C(=C\c2ccc(O)cc2)C1=O)Nc1nccs1
IC50 (Acetylcholinesterase [1]; read-out: IC50): 9.03 µM
IC50 ([7]; read-out: IC50): 51.8 µM

Cc1ccc2sc(NC(=O)CCN3CCCC3)nc2c1
IC50 (Cholinesterase [8]): 15 µM
inhibition at 100 µM [9]: 60%

O=C1S/C(=C\c2c[nH]c3ccccc23)C(=O)N1CNc1nc(-c2ccccc2)cs1
Papp at 20 h (in vitro): 10.7 ×10⁻⁶ cm/s
IC50 (Acetylcholinesterase [1]; read-out: IC50): 0.052 µM
IC50 (Beta-secretase 1; read-out: IC50): 0.76 µM
Activity [2]: Non-toxic
logP [3]: 4.65

COc1ccc(C2CC(c3ccc(O)cc3)=NN2c2nc3ccc(C)cc3s2)cc1OC (stereo not given)
IC50 (Acetylcholinesterase [4]): 8.69 µM

O=C1S/C(=C\c2ccccc2)C(=O)N1c1csc(Nc2ccccc2)n1
IC50 (Acetylcholinesterase [1]; read-out: IC50): 0.29 µM
IC50 (Cholinesterase [13]): 7.18 µM
IC50 ([7]; read-out: IC50): 29.3 µM
IC50 (Beta-secretase 1; read-out: IC50): 10.2 µM

O=C1S/C(=C\c2ccc(O)cc2)C(=O)N1CNc1nc2ccccc2s1
IC50 (Acetylcholinesterase [1]; read-out: IC50): 5.98 µM

CS(=O)(=O)c1ccc(-n2cc(/C=C3/SC(=O)NC3=O)c(-c3ccccc3)n2)cc1
IC50 [14]: 0.48 µM
